Results as given in ChEMBL document CHEMBL3045180, “Synthesis of novel 4,6-diaryl-2-aminopyrimidines as potential antiplasmodial agents” (Med Chem Res, 2013).
Converted amounts (≈) assume the structure as drawn.

Test system: not listed separately
Experiment: Haemolytic activity against Homo sapiens (human) RBC at >50 ug/ml up to 24 hr
Type: ADME, cell-based
Settings: erythrocyte
With COc1cccc(-c2cc(-c3cc(OC)ccc3O)nc(N)n2)c1 the Activity was “Toxic”.
For COc1ccc(O)c(-c2cc(-c3ccccc3Cl)nc(N)n2)c1, the Activity was “Toxic”.
In the case of COc1ccc(O)c(-c2cc(-c3ccc(F)cc3)nc(N)n2)c1, the Activity is reported as “Toxic”.
With COc1ccc(-c2cc(-c3ccc(F)cc3)nc(N)n2)c(O)c1 the Activity was “Toxic”.
For Nc1nc(-c2ccc(F)cc2)cc(-c2ccc(OCc3ccccc3)cc2O)n1, the Activity was “Toxic”.

Test system: Plasmodium falciparum
Experiment: Antiplasmodial activity against chloroquine-sensitive Plasmodium falciparum MRC 20 infected in human red blood cells measured up to 24 hr
Type: functional, organism-based
Settings: MRC 20, 24 h
COc1cccc(-c2cc(-c3cc(OC)ccc3O)nc(N)n2)c1 gave an IC50 greater than 25 µg/mL.
Compound COc1ccc(O)c(-c2cc(-c3ccccc3Cl)nc(N)n2)c1 has an IC50 of 29.3 µg/mL (≈ 89.5 µM).
For COc1ccc(O)c(-c2cc(-c3cccc(Cl)c3)nc(N)n2)c1, the IC50 was 9.53 µg/mL (≈ 29.1 µM).
COc1ccc(O)c(-c2cc(-c3ccc(F)cc3)nc(N)n2)c1 showed an IC50 of 25.5 µg/mL (≈ 82 µM).
Compound COc1ccc(-c2cc(-c3ccc(Cl)cc3)nc(N)n2)c(O)c1 has an IC50 of 21.3 µg/mL (≈ 65.1 µM).
COc1ccc(-c2cc(-c3ccc(OC)cc3O)nc(N)n2)cc1 showed an IC50 of 1.78 µg/mL (≈ 5.5 µM).
Work on COc1ccc(-c2cc(-c3ccc(F)cc3)nc(N)n2)c(O)c1 yielded an IC50 of 15.2 µg/mL (≈ 49 µM).
With COc1ccc(-c2cc(-c3ccc(C)cc3)nc(N)n2)c(O)c1 the IC50 was 8.71 µg/mL (≈ 28.3 µM).
For Nc1nc(-c2ccc(OCc3ccccc3)cc2O)cc(-c2ccccc2Cl)n1, the IC50 was 18.9 µg/mL (≈ 46.7 µM).
For Cc1ccc(-c2cc(-c3ccc(OCc4ccccc4)cc3O)nc(N)n2)cc1, the IC50 was 14.9 µg/mL (≈ 38.8 µM).
Cc1cccc(-c2cc(-c3ccc(OCc4ccccc4)cc3O)nc(N)n2)c1 showed an IC50 of 35.6 µg/mL (≈ 92.7 µM).
For Nc1nc(-c2ccc(F)cc2)cc(-c2ccc(OCc3ccccc3)cc2O)n1, the IC50 was 16.7 µg/mL (≈ 43 µM).
For COc1ccc(-c2cc(-c3ccc(OCc4ccccc4)cc3O)nc(N)n2)cc1OC, the IC50 was 1.61 µg/mL (≈ 3.75 µM).
In the case of COc1cccc(-c2cc(-c3ccc(OCc4ccccc4)cc3O)nc(N)n2)c1, the IC50 is reported as 7.61 µg/mL (≈ 19.1 µM).
COc1ccc(-c2cc(-c3ccc(OCc4ccccc4)cc3O)nc(N)n2)cc1 showed an IC50 of 5.01 µg/mL (≈ 12.5 µM).
Work on C=C[C@H]1C[N@@]2CC[C@H]1C[C@H]2[C@H](O)c1ccnc2ccc(OC)cc12 [QUININE] yielded an IC50 of 29 µg/mL (≈ 89.4 µM).

Test system: not listed separately
Experiment: Haemolytic activity against Homo sapiens (human) RBC at >12.5 ug/ml up to 24 hr
Type: ADME, cell-based
Settings: erythrocyte
With COc1ccc(-c2cc(-c3ccc(OC)cc3O)nc(N)n2)cc1 the Activity was “Toxic”.
With COc1ccc(-c2cc(-c3ccc(OCc4ccccc4)cc3O)nc(N)n2)cc1OC the Activity was “Toxic”.

Test system: not listed separately
Experiment: Haemolytic activity against Homo sapiens (human) RBC at >25 ug/ml up to 24 hr
Type: ADME, cell-based
Settings: erythrocyte
For COc1ccc(O)c(-c2cc(-c3cccc(Cl)c3)nc(N)n2)c1, the Activity was “Toxic”.
In the case of COc1ccc(-c2cc(-c3ccc(Cl)cc3)nc(N)n2)c(O)c1, the Activity is reported as “Toxic”.
With COc1ccc(-c2cc(-c3ccc(C)cc3)nc(N)n2)c(O)c1 the Activity was “Toxic”.
In the case of Nc1nc(-c2ccc(OCc3ccccc3)cc2O)cc(-c2ccccc2Cl)n1, the Activity is reported as “Toxic”.
For Cc1ccc(-c2cc(-c3ccc(OCc4ccccc4)cc3O)nc(N)n2)cc1, the Activity was “Toxic”.
In the case of Cc1cccc(-c2cc(-c3ccc(OCc4ccccc4)cc3O)nc(N)n2)c1, the Activity is reported as “Toxic”.
In the case of COc1cccc(-c2cc(-c3ccc(OCc4ccccc4)cc3O)nc(N)n2)c1, the Activity is reported as “Toxic”.
With COc1ccc(-c2cc(-c3ccc(OCc4ccccc4)cc3O)nc(N)n2)cc1 the Activity was “Toxic”.
With CCN(CC)CCCC(C)Nc1ccnc2cc(Cl)ccc12 (stereo not drawn) [CHLOROQUINE] the Activity was “Toxic”.
For C=C[C@H]1C[N@@]2CC[C@H]1C[C@H]2[C@H](O)c1ccnc2ccc(OC)cc12 [QUININE], the Activity was “Toxic”.
